This is an account of results in the PolyMetriX glass transition set.

In turn, `*=Nc1ccc(/N=C(/C=C/C(=*)c2ccccc2)c2ccccc2)cc1` (repeat unit) came in with a glass transition temperature of 157.00 °C. On to `*=Nc1ccc(Cc2ccc(NC(=*)CC)cc2)cc1` (repeat unit), for which the glass transition temperature came to 130.00 °C.

`*C(=O)c1ccc2c(c1)/C(=N\c1ccc(Oc3ccc(C(c4ccc(Oc5ccc(/N=C6/OC(=O)c7ccc(*)cc76)cc5)cc4)(C(F)(F)F)C(F)(F)F)cc3)cc1)OC2=O` (repeat unit) gave a glass transition temperature of 248.00 °C. The value for `*CC(*)(C)C(=O)OCCF` (repeat unit) was 90.00 °C; that for `*CC(*)(C)C(=O)OCCN(C)c1ccc(/C=C/c2ccc([N+](=O)[O-])cc2)cc1` (repeat unit) was 107.00 °C; that for `*CC(*)(C)C(=O)OCCN(C)c1ccc(/N=N/c2ccc([N+](=O)[O-])cc2)cc1` (repeat unit) was 110.00 °C.

Regarding `*CC(*)(C)C(=O)OCCN(CC)c1ccc(/N=N/c2ccc(S(C)(=O)=O)cc2)cc1` (repeat unit), the glass transition temperature was found to be 144.00 °C. Take `*CC(*)(C)C(=O)OCCN(CC)c1ccc(/N=N/c2ccc([N+](=O)[O-])cc2)cc1` (repeat unit): the glass transition temperature came to 126.00 °C. Compound `*CC(*)(C)C(=O)OCCNC(C)(C)C` (repeat unit) registered a glass transition temperature of 41.00 °C. Take `*CC(*)(C)C(=O)OCCOC` (repeat unit): the glass transition temperature was found to be 24.00 °C. As for `*CC(*)(C)C(=O)OCCOC(=O)c1cc([N+](=O)[O-])cc([N+](=O)[O-])c1` (repeat unit), the glass transition temperature is 92.00 °C. Turning to `*CC(*)(C)C(=O)OCCOCCO` (repeat unit), the glass transition temperature came to 20.00 °C. Compound `*CC(*)(C)C(=O)OCCOCCOC` (repeat unit) yielded a glass transition temperature of 57.00 °C.

In turn, `*CC(*)(C)C(=O)OCCOCCOCC1(C)COCCOCCOCCOC1` (repeat unit) gave a glass transition temperature of 10.00 °C.

Compound `*CC(*)(C)C(=O)OCCOCCOCCOCCOc1ccc(/N=N/c2ccc(C#N)cc2)cc1` (repeat unit) displayed a glass transition temperature of 20.00 °C. The value for `*CC(*)(C)C(=O)OCCOCCOCC[N+](CC)(CC)CCCCS(=O)(=O)O` (repeat unit) was 27.00 °C; that for `*CC(*)(C)C(=O)OCCOCCOc1ccc(/N=N/c2ccc(C#N)cc2)cc1` (repeat unit) was 57.00 °C. The same measure for `*CC(*)(C)C(=O)OCCO[Si](C)(C)C` (repeat unit): 89.00 °C. On to `*CC(*)(C)C(=O)OCCOc1ccc(-c2ccc(-c3ccc(C#N)cc3)cc2)cc1` (repeat unit), for which the glass transition temperature was 115.00 °C. For `*CC(*)(C)C(=O)OCCOc1ccc(/N=N/c2ccc([N+](=O)[O-])cc2)cc1` (repeat unit), the glass transition temperature was found to be 112.00 °C. The compound `*CC(*)(C)C(=O)OCCS(=O)(=O)c1ccc(/N=N/c2ccc(N(CC)CC)cc2)cc1` (repeat unit) came in with a glass transition temperature of 142.00 °C. `*CC(*)(C)C(=O)OCC[N+](C)(C)CCCCCCC` (repeat unit): the glass transition temperature was -44.00 °C.

`*CC(*)(C)C(=O)OCCc1ccc(/N=N/c2ccccc2)cc1` (repeat unit) yielded a glass transition temperature of 80.00 °C. Compound `*CC(*)(C)C(=O)OCCn1c2ccccc2c2cc(/N=N/c3ccc([N+](=O)[O-])cc3[N+](=O)[O-])ccc21` (repeat unit) gave a glass transition temperature of 182.00 °C. Turning to `*CC(*)(C)C(=O)OCc1c(Cl)cccc1Cl` (repeat unit), the glass transition temperature worked out at 58.90 °C. The same measure for `*CC(*)(C)C(=O)OCc1c(F)cccc1F` (repeat unit): 82.00 °C; for `*CC(*)(C)C(=O)OCc1cc(Cl)cc(Cl)c1` (repeat unit): 30.0 °C. In the case of `*CC(*)(C)C(=O)OCc1ccc(OCCOCC)c(OCCOCC)c1` (repeat unit), the glass transition temperature is -2.00 °C. On to `*CC(*)(C)C(=O)OCc1ccc2c(c1)c1ccccc1n2CCCCCCCC` (repeat unit), for which the glass transition temperature is 45.00 °C. Consider `*CC(*)(C)C(=O)OCc1ccc2c(c1)c1ccccc1n2CCCCCCCCCC` (repeat unit), for which the glass transition temperature came to 29.00 °C. Consider `*CC(*)(C)C(=O)OCc1ccccc1Cl` (repeat unit), for which the glass transition temperature came out at 54.10 °C.

`*CC(*)(C)C(=O)O[Si](C)(C)C` (repeat unit) returned a glass transition temperature of 97.50 °C. In turn, `*CC(*)(C)C(=O)Oc1c(C(C)C)cccc1C(C)C` (repeat unit) displayed a glass transition temperature of 198.00 °C. Turning to `*CC(*)(C)C(=O)Oc1cc(C)ccc1C` (repeat unit), the glass transition temperature was 111.00 °C. For the compound `*CC(*)(C)C(=O)Oc1ccc(/N=N/c2ccc(OCCCCCCCCCCCOC(=O)c3ccc4c(c3)OCCOCCOCCOCCO4)cc2)cc1` (repeat unit), the glass transition temperature came to 19.00 °C. As for `*CC(*)(C)C(=O)Oc1ccc(C(=O)/C=C/c2ccc(Cl)cc2)cc1` (repeat unit), the glass transition temperature was found to be 127.00 °C.

As for `*CC(*)(C)C(=O)Oc1ccc(C(=O)Oc2ccc(C)cc2)cc1` (repeat unit), the glass transition temperature was determined as 98.00 °C.

Compound `*CC(*)(C)C(=O)Oc1ccc(C(=O)Oc2ccc(OC)cc2)cc1` (repeat unit) registered a glass transition temperature of 77.00 °C. In turn, `*CC(*)(C)C(=O)Oc1ccc(C(=O)Oc2ccccc2)cc1` (repeat unit) yielded a glass transition temperature of 99.00 °C. For `*CC(*)(C)C(=O)Oc1ccc(C(C)(C)C)cc1` (repeat unit), the glass transition temperature turned out to be 91.00 °C. The value for `*CC(*)(C)C(=O)Oc1ccc(C)cc1C` (repeat unit) was 109.00 °C. For the compound `*CC(*)(C)C(=O)Oc1ccc(OCc2ccccc2)cc1` (repeat unit), the glass transition temperature was 95.30 °C. Take `*CC(*)(C)C(=O)Oc1cccc(C)c1C` (repeat unit): the glass transition temperature is 120.00 °C. The value for `*CC(*)(C)C(=O)Oc1ccccc1` (repeat unit) was 110.00 °C; that for `*CC(*)(C)C(N)=O` (repeat unit) was 88.70 °C; that for `*CC(*)(C)CCC` (repeat unit) was 27.00 °C. On to `*CC(*)(C)c1ccc(C(O)C(F)(F)F)cc1` (repeat unit), for which the glass transition temperature was determined as 199.00 °C. The value for `*CC(*)(C)c1ccc(C)cc1` (repeat unit) was 176.00 °C. For the compound `*CC(*)(C)c1ccc2ccccc2n1` (repeat unit), the glass transition temperature worked out at 193.00 °C.

As for `*CC(*)(C)c1nc(N(CCOCCOCCOC)CCOCCOCCOC)nc(N(CCOCCOCCOC)c2ccccc2)n1` (repeat unit), the glass transition temperature is -75.00 °C.

With `*CC(*)(CC(=O)OC)C(=O)O` (repeat unit), the glass transition temperature was found to be 159.00 °C. For `*CC(*)(CC(=O)OC1CCCCC1)C(=O)OC1CCCCC1` (repeat unit), the glass transition temperature stood at 142.00 °C.

For the compound `*CC(*)(CC(=O)OC1CCCCCC1)C(=O)OC1CCCCCC1` (repeat unit), the glass transition temperature was found to be 105.00 °C. Consider `*CC(*)(CC(=O)OCC)C(=O)OCC` (repeat unit), for which the glass transition temperature was 65.50 °C. Compound `*CC(*)(CC(=O)OCCCCC)C(=O)OCCCCC` (repeat unit) displayed a glass transition temperature of 2.00 °C.

`*CC(*)(CC(=O)OCCCCCCCC)C(=O)OCCCCCCCC` (repeat unit) yielded a glass transition temperature of -19.00 °C. In the case of `*CC(*)(CC(=O)OCCCCl)C(=O)OCCCCl` (repeat unit), the glass transition temperature amounted to 47.00 °C.

Compound `*CC(*)(CC(=O)OCCOCCOCCOCCOCCOCCOCCOC)C(=O)OCCOCCOCCOCCOCCOCCOCCOC` (repeat unit) yielded a glass transition temperature of -40.50 °C. `*CC(*)(CC(=O)Oc1ccc(OCC)cc1)C(=O)Oc1ccc(OCC)cc1` (repeat unit) returned a glass transition temperature of 110.50 °C. `*CC(*)(CC(=O)Oc1ccc(OCCCCC)cc1)C(=O)Oc1ccc(OCCCCC)cc1` (repeat unit) came in with a glass transition temperature of 73.50 °C. Turning to `*CC(*)(CC(=O)Oc1ccc(OCCCCCCC)cc1)C(=O)Oc1ccc(OCCCCCCC)cc1` (repeat unit), the glass transition temperature stood at 111.00 °C.

As to `*CC(*)(CC(=O)Oc1ccccc1)C(=O)Oc1ccccc1` (repeat unit), the glass transition temperature was found to be 132.00 °C.

In turn, `*CC(*)(CCC(C)C(=O)OC)C(=O)OC` (repeat unit) showed a glass transition temperature of 34.00 °C.

As for `*CC(*)(CCCCC)C(=O)OC` (repeat unit), the glass transition temperature came to 53.00 °C. With `*CC(*)(Cl)C(=O)OC` (repeat unit), the glass transition temperature worked out at 125.00 °C. The compound `*CC(*)(Cl)C(=O)OCCOc1ccc(C(=O)Oc2ccc(OCCCC)cc2)cc1` (repeat unit) came in with a glass transition temperature of 153.00 °C. Take `*CC(*)(F)C(=O)OC` (repeat unit): the glass transition temperature is 142.00 °C. The compound `*CC(*)(F)C(=O)OCC(F)(F)C(F)(F)C(F)(F)C(F)F` (repeat unit) gave a glass transition temperature of 60.00 °C. The same measure for `*CC(*)(F)C(=O)OCC(F)(F)C(F)F` (repeat unit): 90.50 °C. As to `*Oc1ccc(/C(C)=N/c2ccc(/N=C(\C)c3ccc(Oc4ccc(C(C)(C)c5ccc(*)cc5)cc4)cc3)cc2)cc1` (repeat unit), the glass transition temperature came to 161.00 °C. `*Oc1ccc(/N=C(\C)c2ccc(Oc3ccc(C(c4ccccc4)(c4ccccc4)c4ccc(Oc5ccc(/C(C)=N/c6ccc(*)cc6)cc5)cc4)cc3)cc2)cc1` (repeat unit) yielded a glass transition temperature of 150.00 °C. The same measure for `*Oc1ccc(/N=C(\c2ccccc2)c2ccc(Oc3ccc(C(c4ccccc4)(c4ccccc4)c4ccc(Oc5ccc(/C(=N/c6ccc(*)cc6)c6ccccc6)cc5)cc4)cc3)cc2)cc1` (repeat unit): 177.00 °C; for `*Oc1ccc2ccc(Oc3ccc(/C(=N/c4ccc(Oc5ccc(/N=C(\c6ccccc6)c6ccc(*)cc6)cc5)cc4)c4ccccc4)cc3)cc2c1` (repeat unit): 165.00 °C.
